Read-outs that look alike come from different tables or passages of the source.
Test: Plasma pharmacokinetics (LC-MS/MS)
Type: in vivo, human
Conditions: for Cmax / AUC(0-t) / half-life / Tmax: human, plasma, oral; for half-life: read-out: t½ (converted); for Tmax: read-out: Tmax, median
Experimental: Peripheral blood was collected serially to quantify plasma levels of sapanisertib for PK analysis via validated liquid chromatography tandem mass spectrometry with an assay range of 1–1000 ng/mL (MicroConstants, San Diego, CA), during both dose-escalation and expansion phases. Blood samples were collected before each dose and 0.5, 1, 2, 4, 8 and 24 h after dosing on cycle 1, day 1 and cycle 2, day 1, in the dose-escalation phase. In the expansion phase, samples were collected predose and 2, 4 and 6 h postdose on cycle 1, day 1, and then predose and 2 h postdose on day 8, 15 or 22 of cycle 1.

[1] = 6 mg, cycle 2, day 1, QDx3dQW 6 mg
[2] = 7 mg, cycle 2, day 1, QDx5dQW 7 mg
[3] = 9 mg, cycle 2, day 1, QDx3dQW 9 mg

For `CC(C)n1nc(-c2ccc3oc(N)nc3c2)c2c(N)ncnc21` [Sapanisertib], which “Plasma accumulation with repeat dosing” value (any of the schedules) is on record?
The value was “did not accumulate in plasma to any appreciable extent”.

And the “Tmax, median” value (cycle 1, day 1, 2 mg)?
The value was 2.0 h.

And the “Tmax, median” value (cycle 1, day 1, 4 mg)?
The value was 2.0 h.

And the “AUC0–last [%CV]” value (cycle 1, day 1, 6 mg)?
The value was 124.3 (NA) ng*h/mL.

And the t½ (cycle 1, day 1, 6 mg)?
Its t½ is 6.8 h.

And the “Tmax, median” value (cycle 1, day 1, 7 mg)?
The value was 1.5 h.

And the “Tmax, median” value (cycle 1, day 1, 9 mg)?
Its value is 1.1 h.

And the “Tmax, median” value (cycle 1, day 1, 12 mg)?
The value was 2.0 h.

And the “Tmax, median” value (cycle 1, day 1, 15 mg)?
The value was 2.0 h.

And the “AUC0–last [%CV]” value (cycle 1, day 1, 16 mg)?
Its value is 124.9 (NA) ng*h/mL.

And the “Tmax, median” value (cycle 2, day 1, QD 2 mg)?
The value was 2.0 h.

And the “Tmax, median” value (cycle 2, day 1, QD 6 mg)?
The value was 2.0 h.

And the t½ (cycle 2, day 1, QDx3dQW 6 mg)?
Its t½ is 9.1 (NA) h.

What about the t½ (cycle 2, day 1, QDx3dQW 16 mg) of the same compound?
The t½ was 6.6 (2.29) h.

And the “Tmax, median” value (cycle 2, day 1, QDx5dQW 10 mg)?
Its value is 2.0 h.

What about the “Tmax, median” value (cycle 2, day 1, QDx5dQW 13 mg) of the same compound?
Its value is 2.0 h.

And the “Cmax [%CV]” value (cycle 2, day 1, QW 7 mg)?
Its value is 65.8 (NA) ng/mL.

And the “Tmax, median” value (cycle 2, day 1, QW 7 mg)?
The value was 1 h.

What about the “Cmax [%CV]” value (cycle 2, day 1, QW 10 mg) of the same compound?
The value was 36.2 (NA) ng/mL.

And the “Tmax, median” value (cycle 2, day 1, QW 15 mg)?
The value was 2.0 h.

What about the “Tmax, median” value (cycle 2, day 1, QW 40 mg) of the same compound?
The value was 2.0 h.

And the Cmax (2 mg, cycle 1, day 1, 2 mg)?
Its Cmax is 13.5 ng/mL.

And the AUC(0-t) (2 mg, cycle 1, day 1, 2 mg, read-out: AUC0–last [%CV])?
The AUC(0-t) was 65.4 ng·h/mL.

What about the Cmax (2 mg, cycle 2, day 1, QD 2 mg) of the same compound?
The Cmax was 15.6 ng/mL.

What about the AUC(0-t) (2 mg, cycle 2, day 1, QD 2 mg, read-out: AUC0–24h [%CV]) of the same compound?
Its AUC(0-t) is 185 ng·h/mL.

What about the half-life (2 mg, cycle 2, day 1, QD 2 mg) of the same compound?
Its half-life is 8.1 h.

What about the Cmax (4 mg, cycle 1, day 1, 4 mg) of the same compound?
Its Cmax is 19.1 ng/mL.

And the AUC(0-t) (4 mg, cycle 1, day 1, 4 mg, read-out: AUC0–24h [%CV])?
The AUC(0-t) was 178 ng·h/mL.

And the AUC(0-t) (4 mg, cycle 1, day 1, 4 mg, read-out: AUC0–last [%CV])?
The AUC(0-t) was 63.2 ng·h/mL.

What about the half-life (4 mg, cycle 1, day 1, 4 mg) of the same compound?
The half-life was 7.1 h.

And the Cmax (4 mg, cycle 2, day 1, QD 4 mg)?
Its Cmax is 20.3 ng/mL.

And the AUC(0-t) (4 mg, cycle 2, day 1, QD 4 mg, read-out: AUC0–24h [%CV])?
The AUC(0-t) was 281 ng·h/mL.

What about the AUC(0-t) (4 mg, cycle 2, day 1, QD 4 mg, read-out: AUC0–last [%CV]) of the same compound?
The AUC(0-t) was 61.9 ng·h/mL.

What about the Tmax (4 mg, cycle 2, day 1, QD 4 mg) of the same compound?
Its Tmax is 3.8 h.

What about the half-life (4 mg, cycle 2, day 1, QD 4 mg) of the same compound?
The half-life was 10.3 h.

What about the Cmax (6 mg, cycle 1, day 1, 6 mg) of the same compound?
The Cmax was 50.8 ng/mL.

What about the AUC(0-t) (6 mg, cycle 1, day 1, 6 mg, read-out: AUC0–24h [%CV]) of the same compound?
The AUC(0-t) was 354 ng·h/mL.

And the Cmax (6 mg, cycle 2, day 1, QD 6 mg)?
Its Cmax is 36.9 ng/mL.

What about the AUC(0-t) (6 mg, cycle 2, day 1, QD 6 mg, read-out: AUC0–24h [%CV]) of the same compound?
The AUC(0-t) was 327 ng·h/mL.

What about the half-life (6 mg, cycle 2, day 1, QD 6 mg) of the same compound?
The half-life was 7.3 h.

What about the Cmax [1] of the same compound?
Its Cmax is 59.2 ng/mL.

What about the AUC(0-t) (6 mg, cycle 2, day 1, QDx3dQW 6 mg, read-out: AUC0–24h [%CV]) of the same compound?
The AUC(0-t) was 777 ng·h/mL.

And the Tmax [1]?
Its Tmax is 4 h.

And the Cmax (7 mg, cycle 1, day 1, 7 mg)?
The Cmax was 46.7 ng/mL.

What about the AUC(0-t) (7 mg, cycle 1, day 1, 7 mg, read-out: AUC0–24h [%CV]) of the same compound?
The AUC(0-t) was 327 ng·h/mL.

And the half-life (7 mg, cycle 1, day 1, 7 mg)?
The half-life was 6.9 h.

What about the Cmax (7 mg, cycle 2, day 1, QD 7 mg) of the same compound?
The Cmax was 51.3 ng/mL.

And the AUC(0-t) (7 mg, cycle 2, day 1, QD 7 mg, read-out: AUC0–24h [%CV])?
The AUC(0-t) was 351 ng·h/mL.

And the Tmax (7 mg, cycle 2, day 1, QD 7 mg)?
Its Tmax is 4 h.

And the half-life (7 mg, cycle 2, day 1, QD 7 mg)?
The half-life was 5.63 h.

What about the Cmax [2] of the same compound?
The Cmax was 49.7 ng/mL.

What about the AUC(0-t) (7 mg, cycle 2, day 1, QDx5dQW 7 mg, read-out: AUC0–24h [%CV]) of the same compound?
The AUC(0-t) was 362 ng·h/mL.

And the half-life [2]?
The half-life was 6.7 h.

What about the AUC(0-t) (7 mg, cycle 2, day 1, QW 7 mg, read-out: AUC0–24h [%CV]) of the same compound?
Its AUC(0-t) is 351 ng·h/mL.

What about the half-life (7 mg, cycle 2, day 1, QW 7 mg) of the same compound?
Its half-life is 5.6 h.

And the Cmax (9 mg, cycle 1, day 1, 9 mg)?
Its Cmax is 75.9 ng/mL.

What about the AUC(0-t) (9 mg, cycle 1, day 1, 9 mg, read-out: AUC0–24h [%CV]) of the same compound?
Its AUC(0-t) is 596 ng·h/mL.

And the half-life (9 mg, cycle 1, day 1, 9 mg)?
The half-life was 7.5 h.

What about the Cmax [3] of the same compound?
Its Cmax is 83.1 ng/mL.

What about the AUC(0-t) (9 mg, cycle 2, day 1, QDx3dQW 9 mg, read-out: AUC0–24h [%CV]) of the same compound?
The AUC(0-t) was 707 ng·h/mL.

And the Tmax [3]?
The Tmax was 2.1 h.

And the half-life [3]?
Its half-life is 6.9 h.

What about the Cmax (10 mg, cycle 1, day 1, 10 mg) of the same compound?
Its Cmax is 48.4 ng/mL.

And the AUC(0-t) (10 mg, cycle 1, day 1, 10 mg, read-out: AUC0–24h [%CV])?
Its AUC(0-t) is 342 ng·h/mL.

What about the AUC(0-t) (10 mg, cycle 1, day 1, 10 mg, read-out: AUC0–last [%CV]) of the same compound?
The AUC(0-t) was 153 ng·h/mL.
